Tests used:
Assay type in all cases: in vivo
[1] = system: Echinochloa crus-galli (ECHCG); test: Post-emergence Test (glasshouse, percentage damage to the plant); details: post-emergence spray, 1000 g/ha unless otherwise stated, evaluated after 13 days
How it was run: (§1)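 Seeds are sown in standard soil under controlled glasshouse conditions. The pots are then sprayed at 1000 g/ha, unless otherwise stated, with compound in acetone/water (50:50) containing 0.5% Tween 20. After 13 days further growth, percentage plant damage is scored from 1 (0-20%) to 5 (81-100%).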

[2] = system: Amaranthus retoflexus (AMARE); test: as above; details: post-emergence spray, 1000 g/ha unless otherwise stated, evaluated after 13 days
How it was run: as §1

[3] = system: Lolium perenne (LOLPE); test: as above; details: post-emergence spray, 1000 g/ha unless otherwise stated, evaluated after 13 days
How it was run: as §1

[4] = system: Setaria faberi (SETFA); test: as above; details: post-emergence spray, 1000 g/ha unless otherwise stated, evaluated after 13 days
How it was run: (§2)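 Seeds sown in pots in glasshouse (24/16 °C day/night, 14 h light, 65% humidity), then sprayed with compound at 1000 g/ha unless stated, from acetone/water 50:50 with 0.5% Tween 20. Damage assessed 13 days later on five-point scale (1=0–20% to 5=81–100%).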

[5] = system: Solanum nigrum (SOLNI); test: as above; details: post-emergence spray, 1000 g/ha unless otherwise stated, evaluated after 13 days
How it was run: as §1

[6] = system: Ipomoea hederacea (IPOHE); test: as above; details: post-emergence spray, 1000 g/ha unless otherwise stated, evaluated after 13 days
How it was run: as §2

[7] = system: Amaranthus retoflexus (AMARE); test: Pre-emergence Test (glasshouse, percentage damage to the plant); details: 1000 g/ha unless otherwise stated, five-point scale
[8] = system: Echinochloa crus-galli (ECHCG); test: as above; details: 1000 g/ha unless otherwise stated, five-point scale
[9] = system: Setaria faberi (SETFA); test: as above; details: 1000 g/ha unless otherwise stated, five-point scale
[10] = system: Solanum nigrum (SOLNI); test: as above; details: 1000 g/ha unless otherwise stated, five-point scale
[11] = system: Lolium perenne (LOLPE); test: as above; details: 1000 g/ha unless otherwise stated, five-point scale
[12] = system: Ipomoea hederacea (IPOHE); test: as above; details: 1000 g/ha unless otherwise stated, five-point scale

Row | SMILES | Post-emergence Test ECHCG, percentage damage to the plant (five-point scale) [1] | Post-emergence Test AMARE, percentage damage to the plant (five-point scale) [2] | Post-emergence Test LOLPE, percentage damage to the plant (five-point scale) [3] | Post-emergence Test SETFA, percentage damage to the plant (five-point scale) [4] | Post-emergence Test SOLNI, percentage damage to the plant (five-point scale) [5] | Post-emergence Test IPOHE, percentage damage to the plant (five-point scale) [6] | percentage damage to the plant, AMARE [7] | percentage damage to the plant, ECHCG [8] | percentage damage to the plant, SETFA [9] | percentage damage to the plant, SOLNI [10] | percentage damage to the plant, LOLPE [11] | percentage damage to the plant, IPOHE [12]
1 | CCn1c(C)c(-c2ccc(Cl)cc2)c(=O)c(C(=O)O)c1-c1ccc(Cl)c(Cl)c1 [Compound 10, 5-(4-chlorophenyl)-2-(3,4-dichlorophenyl)-1-ethyl-6-methyl-4-oxo-pyridine-3-carboxylic acid] | 4 (4=61-80%) | 5 (5=81-100%) | 3 (3=41-60%) | 5 (5=81-100%) | 5 (5=81-100%) | 4 (4=61-80%) | 5 (5=81-100%) | 3 (3=41-60%) | 4 (4=61-80%) | 4 (4=61-80%) | 1 (1=0-20%) | 2 (2=21-40%)
2 | CCn1c(COC)c(-c2ccc(Cl)cc2)c(=O)c(C(=O)O)c1-c1ccc(Cl)c(Cl)c1 [Compound 7, 5-(4-chlorophenyl)-2-(3,4-dichlorophenyl)-1-ethyl-6-(methoxymethyl)-4-oxo-pyridine-3-carboxylic acid] | 4 (4=61-80%) | 5 (5=81-100%) | 1 (1=0-20%) | 4 (4=61-80%) | 2 (2=21-40%) | 2 (2=21-40%) | – | 2 (2=21-40%) | 2 (2=21-40%) | 1 (1=0-20%) | 1 (1=0-20%) | 1 (1=0-20%)
3 | CCn1c(C)c(-c2cccnc2)c(=O)c(C(=O)O)c1-c1ccc(Cl)c(Cl)c1 [Compound 21, 2-(3,4-dichlorophenyl)-1-ethyl-6-methyl-4-oxo-5-pyridin-1-ium-3-yl-pyridine-3-carboxylic acid;2,2,2-trifluoroacetate] | 3 (3=41-60%) | 3 (3=41-60%) | – | – | 4 (4=61-80%) | 3 (3=41-60%) | – | 2 (2=21-40%) | 3 (3=41-60%) | – | – | –
4 | CCn1c(C)c(-c2ccc(Cl)nc2)c(=O)c(C(=O)O)c1-c1ccc(Cl)c(Cl)c1 [Compound 12, 5-(6-chloro-3-pyridyl)-2-(3,4-dichlorophenyl)-1-ethyl-6-methyl-4-oxo-pyridine-3-carboxylic acid] | 4 (4=61-80%) | 5 (5=81-100%) | 3 (3=41-60%) | 5 (5=81-100%) | – | 4 (4=61-80%) | 5 (5=81-100%) | 4 (4=61-80%) | 5 (5=81-100%) | – | 1 (1=0-20%) | 1 (1=0-20%)
5 | CCn1c(C)c(-c2ccc(F)cc2F)c(=O)c(C(=O)O)c1-c1ccc(-c2ccc(F)cc2F)c(Cl)c1 [Compound 4, 2-[3-chloro-4-(2,4-difluorophenyl)phenyl]-5-(2,4-difluorophenyl)-1-ethyl-6-methyl-4-oxo-pyridine-3-carboxylic acid] | 1 (1=0-20%) | 3 (3=41-60%) | 1 (1=0-20%) | 2 (2=21-40%) | – | 2 (2=21-40%) | 1 (1=0-20%) | 1 (1=0-20%) | 1 (1=0-20%) | – | 1 (1=0-20%) | 1 (1=0-20%)

Source: patent publication US12660819B2, “Herbicidal derivatives” (SYNGENTA CROP PROTECTION AG, priority 2020, dated 2026)
